In patent US11939345B2, “Physiologically stable fluorophore and performing fluorescence probing” (Government of the United States of America, as represented …, priority 2019, dated 2024):

Legend:
[1] = pH stability of fluorescence intensity; type: physicochemical; settings: Example 2; FIG. 22B
Procedure: With regard to assessment of photoluminescence properties of labeled CNF, photoluminescence excitation (PLE) spectroscopy maps and line scans were obtained with spectrofluorometer and corrected for the instrument's source spectral distribution and detector spectral response. Excitation wavelengths were scanned in 5 nm increments using a 450 W xenon lamp through a 2 nm slit. Emitted light was collected at 90° and measured using a liquid N2-cooled InGaAs detector over 2 nm increments through a 2 nm slit. The fluorescence emission spectra of mDTEB-CNF and mDTEB-seCNF were created using an excitation wavelength (λEx) of 514 nm with emission wavelengths from 530 nm to 650 nm. […] The pH stability of mDTEB-CNF and mDTEB-seCNF were evaluated by measuring fluorescence intensity using a Nanolog-3 spectrofluorometer. Buffered solutions containing 0.5 mg/mL labeled CNF in the range of pH 2 to 10 were equilibrated to 37° C., and the fluorescence intensity was measured at λEm 540 nm. […] The photoluminescence spectra of autoclaved washed fibers, the collected supernatants, and the controls were recorded using the spectrofluorometer as described above. The concentration-dependence of the labeled CNF fluorescence was assessed by measuring the fluorescence intensity of labeled CNF diluted to concentrations between 2 μg/mL and 2 mg/mL using PBS buffer or deionized water. […]

[2] = Photoluminescence excitation/emission and absorption spectra; type: physicochemical
Procedure: With regard to assessment of photoluminescence properties of labeled CNF, photoluminescence excitation (PLE) spectroscopy maps and line scans were obtained with spectrofluorometer and corrected for the instrument's source spectral distribution and detector spectral response. Excitation wavelengths were scanned in 5 nm increments using a 450 W xenon lamp through a 2 nm slit. Emitted light was collected at 90° and measured using a liquid N2-cooled InGaAs detector over 2 nm increments through a 2 nm slit. The fluorescence emission spectra of mDTEB-CNF and mDTEB-seCNF were created using an excitation wavelength (λEx) of 514 nm with emission wavelengths from 530 nm to 650 nm. An excitation plot was created with an emission wavelength (λEm) of 540 nm with excitation wavelengths from 400 nm to 530 nm. The UV-Vis absorption spectra were collected with a UV-Vis-NIR spectrophotometer. The pH stability of mDTEB-CNF and mDTEB-seCNF were evaluated by measuring fluorescence intensity using a Nanolog-3 spectrofluorometer. Buffered solutions containing 0.5 mg/mL labeled CNF in the range of pH 2 to 10 were equilibrated to 37° C., and the fluorescence intensity was measured at λEm 540 nm. […] The photoluminescence spectra of autoclaved washed fibers, the collected supernatants, and the controls were recorded using the spectrofluorometer as described above. The concentration-dependence of the labeled CNF fluorescence was assessed by measuring the fluorescence intensity of labeled CNF diluted to concentrations between 2 μg/mL and 2 mg/mL using PBS buffer or deionized water. Fluorescence intensity was recorded on a multimode microplate reader equipped with monochromator optics at λEx 514 nm and λEm 540 nm. […] Each suspension was measured in triplicate using 200 μL samples. […] For fluorescence images, dilute labeled CNF suspensions were deposited onto an ultraviolet ozone (UVO)-treated glass slides and dried at room temperature. […]
Photoluminescence properties (excitation and emission spectra) of the mDTEB dye and mDTEB-seCNF were recorded using fluorescence spectroscopy. […]

In the case of CCC1=C(C)C2=C(c3ccc(Oc4nc(Cl)nc(Cl)n4)cc3)c3c(C)c(CC)c(C)n3[B-](F)(F)[N+]2=C1C [mDTEB, 10-(4-((4,6-dichloro-1,3,5-triazin-2-yl)oxy)phenyl)-2,8-diethyl-5,5-difluoro-1,3,7,9-tetramethyl-5H-414,514-dipyrrolo[1,2-c:2′,1′-f] [1,3,2]diazaborinine], the “emission intensity as a function of pH” value [1] is reported as “stable to a wide range of pH values”, the Stokes shift [2] is reported as 36 nm and the absorbance peak ([2]; FIG. 22A, in water) is reported as 514 nm. The “maximum emission intensity wavelength / emission peak” value ([2]; fluorescence spectroscopy) was 540 nm.
